Test results: PMC8989696, “Characterization of furathiocarb metabolism in in-vitro human liver microsomes and recombinant cytochrome P450 enzymes” (Toxicology Reports, 2022)

How the values were obtained:
CYP1A2 = target: T1, CYP1A2 (Homo sapiens, UniProt P05177); test: biochemical; type: in vitro ADME
T1 construct: from tissue; host or cells: pooled human liver microsomes (n = 10 donors)
T1 sequence (P05177 1-516): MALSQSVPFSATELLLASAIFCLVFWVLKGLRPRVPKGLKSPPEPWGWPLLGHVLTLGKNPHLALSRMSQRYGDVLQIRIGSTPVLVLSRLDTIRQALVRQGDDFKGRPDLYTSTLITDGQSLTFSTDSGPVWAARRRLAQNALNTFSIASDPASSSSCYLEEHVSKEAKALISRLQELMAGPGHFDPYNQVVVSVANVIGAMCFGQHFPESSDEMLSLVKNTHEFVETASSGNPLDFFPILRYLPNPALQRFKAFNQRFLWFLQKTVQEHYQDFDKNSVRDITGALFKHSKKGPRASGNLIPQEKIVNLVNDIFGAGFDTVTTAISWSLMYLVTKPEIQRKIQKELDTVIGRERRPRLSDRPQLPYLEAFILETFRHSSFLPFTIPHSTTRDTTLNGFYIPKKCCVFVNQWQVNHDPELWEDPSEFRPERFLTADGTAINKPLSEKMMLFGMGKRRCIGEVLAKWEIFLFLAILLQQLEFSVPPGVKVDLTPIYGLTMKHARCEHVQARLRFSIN
Description: (§1) N-in-one (“cocktail”) assay for measuring major CYP activities simultaneously, [55], [56] was employed to investigate human CYP-furathiocarb inhibitory interactions in pooled human hepatic microsomes. Furathiocarb (ﬁnal concentrations in the incubation mixture were 1, 5, 25, 50, and 100 µM) was added to the incubation mixture. The N-in-one was used earlier for the study of pesticide interactions and the details of the incubations with furathiocarb are described in Supplementary materials.
(§2) The kinetic parameters Vmax and Km were calculated by nonlinear regression. Bivariate linear Pearson’s correlation coefﬁcients (r2) were calculated between metabolite formations and model activities in the livers. GraphPad Prism 9 Software (Inc., San Diego, CA) Prism 9.0.0 (San Diego, CA) was used for kinetic parameters and correlation coefﬁcients analysis. The IC50 values were determined by linear regression analysis using OriginPro 2020 (MicroCal Software, Inc., Northampton, MA.
(§3) N-in-one assay was performed to investigate human CYP-furathiocarb inhibitory interactions. Furathiocarb (ﬁnal concentrations in the incubation mixture were 1, 5, 25, 50, and 100 µM) was added to the incubation mixture.
(§4) The N-in-one assay, analytical method and authentic standards have been described previously (Abass and Pelkonen 2013; Tolonen et al. 2007; Turpeinen et al. 2005). […]

CYP2C19 = target: T2, CYP2C19 (Homo sapiens, UniProt P33261); test: biochemical; type: in vitro ADME
T2 construct: from tissue; host or cells: pooled human liver microsomes (n = 10 donors)
T2 sequence (P33261 whole entry): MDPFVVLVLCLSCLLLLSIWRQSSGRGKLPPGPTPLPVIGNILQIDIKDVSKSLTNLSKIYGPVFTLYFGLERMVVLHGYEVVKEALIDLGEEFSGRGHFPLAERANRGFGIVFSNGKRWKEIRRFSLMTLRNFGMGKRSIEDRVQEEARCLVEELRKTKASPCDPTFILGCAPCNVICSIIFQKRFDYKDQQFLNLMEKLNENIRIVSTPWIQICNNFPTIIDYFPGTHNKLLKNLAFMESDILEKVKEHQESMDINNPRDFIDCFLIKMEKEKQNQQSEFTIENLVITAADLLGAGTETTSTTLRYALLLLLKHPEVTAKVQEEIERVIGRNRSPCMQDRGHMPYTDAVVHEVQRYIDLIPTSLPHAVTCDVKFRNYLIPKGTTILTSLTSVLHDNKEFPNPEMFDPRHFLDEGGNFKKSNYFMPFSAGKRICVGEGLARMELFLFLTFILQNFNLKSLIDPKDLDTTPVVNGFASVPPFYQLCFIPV
Description: as §1, §2, §3, §4

CYP2B6 [1] = target: T3, CYP2B6 (Homo sapiens, UniProt P20813); test: in vitro; type: in vitro ADME; set-up: purchased BD Biosciences Discovery Labware (Bedford, MA); host or cells: baculovirus-infected insect cells; conditions: pH 7.4, Carbofuran metabolic pathway, rCYP2B6
T3 sequence (P20813 1-491): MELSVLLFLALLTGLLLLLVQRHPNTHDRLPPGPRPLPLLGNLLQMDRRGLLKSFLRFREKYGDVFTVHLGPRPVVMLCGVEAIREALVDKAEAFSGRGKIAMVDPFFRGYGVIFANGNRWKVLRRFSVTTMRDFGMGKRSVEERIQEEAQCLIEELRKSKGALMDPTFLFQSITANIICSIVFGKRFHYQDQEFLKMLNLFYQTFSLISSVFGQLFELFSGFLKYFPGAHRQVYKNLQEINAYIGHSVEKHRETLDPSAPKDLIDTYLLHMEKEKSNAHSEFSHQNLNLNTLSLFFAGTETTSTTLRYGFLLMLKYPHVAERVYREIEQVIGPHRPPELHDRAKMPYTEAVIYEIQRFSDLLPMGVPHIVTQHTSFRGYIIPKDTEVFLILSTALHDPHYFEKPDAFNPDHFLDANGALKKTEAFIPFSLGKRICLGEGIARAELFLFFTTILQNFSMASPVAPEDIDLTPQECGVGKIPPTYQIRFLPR
Description: Furathiocarb was incubated with recombinant CYPs (rCYP). The incubation mixture contained rCYPs (50 pmol CYP per ml), 100 µM furathiocarb, and 1 mM NADPH in 200 µl 0.1 M phosphate buffer (pH 7.4). Incubation procedures and chromatographic separation are presented in Supplementary materials.
Enzyme kinetic parameters of both the microsomal samples and rCYP enzymes were measured. The incubation mixture contained furathiocarb (2.5, 10, 25, 50, 150 and 300 µM). Incubation times were 20 and 30 min for microsomal samples and rCYPs, respectively. Otherwise incubation mixtures and methods were the same as in metabolite identification. The rate of sum of furathiocarb metabolite formation was linear at least up to 0.15 mg protein/ml and 30 min incubation time in the standard experimental conditions.
To measure the main furathiocarb metabolites of recombinantly expressed CYP enzymes (rCYPs), the standard incubation mixture (200 µl) contained 0.1 M phosphate buffer (pH 7.4), 1 mM NADPH, 100 µM […], and rCYPs (50 pmol CYP per ml). Incubations were carried out according to the manufacturer’s instructions. Shortly, the reaction was started by adding recombinant enzymes to the preincubated eaction mixture (2 min at +37 ◦C), mixed gently and incubated for 30 min at +37 ◦C in an incubator block without agitation. […]

CYP2B6 [2] = target: T3, CYP2B6; test: biochemical; type: in vitro ADME; set-up: from tissue; host or cells: pooled human liver microsomes (n = 10 donors)
Description: as §1, §2, §3, §4

[3] = 7 cases of acute fatalities, cited from earlier work

CCCCOC(=O)N(C)SN(C)C(=O)Oc1cccc2c1OC(C)(C)C2 [furathiocarb, Furathiocarb]
IC50 (CYP1A2): 16.5 to 18.5 µM | IC50 (CYP2C19): 16.5 to 18.5 µM | Km at 30 min (CYP2B6 [1]): 9.7 ± 3.9 µM | IC50 (CYP2B6 [2]): 16.5 to 18.5 µM | Concentrations in the blood (average) ([3]; n = 7): 3600 ng/mL | Concentrations in the blood (range) [3]: 100 to 21600 ng/mL
